Measurements published in ChEMBL document CHEMBL1201862, “PubChem BioAssay data set” (2004).
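96-well plates; 48 h exposure; 5 concentrations. Endpoints by linear interpolation between flanking doses. Not reached: highest tested concentration assigned. GI50 marks 50% less growth.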 Active and inactive are the calls of the source. No stated cut-off is given here; in the data, active = GI50 up to about 1.1 µM and inactive = higher.

Key:
Experiment in all cases: growth of human tumour cells (NCI), 48 h
UACC-62 = system: UACC-62
UO-31 = system: UO-31
COLO 205 = system: COLO 205
NCI/ADR-RES = system: NCI/ADR-RES
NCI-H226 = system: NCI-H226
OVCAR-8 = system: OVCAR-8
SF-268 = system: SF-268
HOP-62 = system: HOP-62
NCI-H23 = system: NCI-H23
SF-295 = system: SF-295
HL-60 = system: HL-60
BT-549 = system: BT-549
CAKI-1 = system: CAKI-1
HCT-116 = system: HCT-116
MDA-MB-435 = system: MDA-MB-435
T47D = system: T47D
HCT-15 = system: HCT-15
SN12C = system: SN12C
SF-539 = system: SF-539
EKVX = system: EKVX
Malme-3M = system: Malme-3M
A498 = system: A498
MCF7 = system: MCF7
OVCAR-4 = system: OVCAR-4
SK-MEL-5 = system: SK-MEL-5
SW-620 = system: SW-620
OVCAR-5 = system: OVCAR-5
SK-MEL-28 = system: SK-MEL-28
M14 = system: M14
Hs-578T = system: Hs-578T
NCI-H460 = system: NCI-H460
MDA-N = system: MDA-N
A549 = system: A549
UACC-257 = system: UACC-257
LOX IMVI = system: LOX IMVI
K562 = system: K562
SK-OV-3 = system: SK-OV-3
SK-MEL-2 = system: SK-MEL-2
RXF 393 = system: RXF 393
PC-3 = system: PC-3
SNB-19 = system: SNB-19
SR = system: SR
SNB-75 = system: SNB-75
CCRF-CEM = system: CCRF-CEM
DU-145 = system: DU-145
U-251 = system: U-251
HCC 2998 = system: HCC 2998
OVCAR-3 = system: OVCAR-3
HOP-92 = system: HOP-92
HT-29 = system: HT-29
TK-10 = system: TK-10
MOLT-4 = system: MOLT-4
IGROV-1 = system: IGROV-1
RPMI-8226 = system: RPMI-8226
KM12 = system: KM12
ACHN = system: ACHN
786-0 = system: 786-0
MDA-MB-231 = system: MDA-MB-231
NCI-H522 = system: NCI-H522

Measured: GI50

Nc1nc(N)c2c(n1)NC(=O)c1c(c3ccccc3n1Cc1ccc(Cl)cc1)C2
inactive: UACC-62 45.7 µM | UO-31 > 100 µM | COLO 205 16 µM | NCI/ADR-RES 26.6 µM | NCI-H226 37.6 µM | OVCAR-8 26.4 µM | SF-268 45.5 µM | HOP-62 25.5 µM | NCI-H23 > 100 µM | SF-295 34.2 µM | HL-60 18 µM | BT-549 24.2 µM | CAKI-1 19.7 µM | HCT-116 23.6 µM | MDA-MB-435 18.8 µM | T47D 16.8 µM | SN12C 17.3 µM | SF-539 23.9 µM | EKVX 33.2 µM | Malme-3M 55.3 µM | A498 16 µM | MCF7 35.3 µM | OVCAR-4 18.5 µM | SK-MEL-5 15.3 µM | SW-620 35.8 µM | OVCAR-5 48.9 µM | SK-MEL-28 49 µM | M14 37.8 µM | Hs-578T 24 µM | NCI-H460 18.2 µM | MDA-N 16.6 µM | A549 21.1 µM | UACC-257 64.1 µM | LOX IMVI 19.1 µM | K562 25.6 µM | SK-OV-3 18.8 µM | SK-MEL-2 32.4 µM | RXF 393 15.5 µM | PC-3 23 µM | SNB-19 > 100 µM | SR > 10 µM | SNB-75 17.9 µM | CCRF-CEM 17.7 µM | DU-145 14.4 µM | U-251 25.8 µM | HCC 2998 17.8 µM | OVCAR-3 23.3 µM | HOP-92 1.5 µM | HT-29 31.3 µM | TK-10 21.5 µM | MOLT-4 6.56 µM | IGROV-1 29.6 µM
17 µM: HCT-15

C=C1[C@@H]2CCC3[C@]4(C)C(CC[C@@]5(C)C(=O)O[C@H](O)[C@@H]45)[C@H](O)[C@]3(C2)[C@H]1OC1OC(CO)C(O)C(O)C1O (stereo partly drawn)
> 50 µM: HCT-15
inactive: UACC-62 > 50 µM | UO-31 > 50 µM | COLO 205 > 50 µM | RPMI-8226 8.81 µM | NCI/ADR-RES > 50 µM | KM12 > 50 µM | NCI-H226 > 50 µM | ACHN > 50 µM | OVCAR-8 > 50 µM | SF-268 > 50 µM | HOP-62 > 50 µM | NCI-H23 > 50 µM | SF-295 > 50 µM | HL-60 > 50 µM | BT-549 > 50 µM | HCT-116 > 50 µM | T47D > 50 µM | 786-0 > 50 µM | SN12C > 50 µM | SF-539 > 50 µM | EKVX > 50 µM | Malme-3M > 50 µM | A498 > 50 µM | MCF7 > 50 µM | OVCAR-4 > 50 µM | SK-MEL-5 > 50 µM | SW-620 > 50 µM | OVCAR-5 > 50 µM | SK-MEL-28 > 50 µM | M14 > 50 µM | Hs-578T > 50 µM | NCI-H460 > 50 µM | MDA-N > 50 µM | A549 > 50 µM | UACC-257 > 50 µM | LOX IMVI > 50 µM | K562 14.1 µM | SK-OV-3 > 50 µM | SK-MEL-2 > 50 µM | RXF 393 > 50 µM | PC-3 > 50 µM | SNB-19 > 50 µM | SNB-75 > 50 µM | DU-145 > 50 µM | U-251 > 50 µM | OVCAR-3 > 50 µM | HT-29 > 50 µM | TK-10 > 50 µM | MDA-MB-231 > 50 µM | MOLT-4 17.4 µM | IGROV-1 > 50 µM

NC1CC(N)c2c(Br)sc(Br)c21 (stereo not drawn)
inactive: UACC-62 > 100 µM | UO-31 41.4 µM | COLO 205 > 100 µM | NCI/ADR-RES > 100 µM | KM12 > 100 µM | NCI-H226 77.1 µM | ACHN > 100 µM | OVCAR-8 55.6 µM | SF-268 67.3 µM | HOP-62 86.1 µM | NCI-H23 > 100 µM | SF-295 98.9 µM | NCI-H522 44.1 µM | BT-549 > 100 µM | CAKI-1 > 100 µM | HCT-116 87.9 µM | MDA-MB-435 > 100 µM | T47D 54 µM | 786-0 95.3 µM | SN12C > 100 µM | SF-539 > 100 µM | EKVX > 100 µM | Malme-3M > 100 µM | A498 > 100 µM | MCF7 > 100 µM | OVCAR-4 > 100 µM | SK-MEL-5 > 100 µM | SW-620 62.2 µM | OVCAR-5 > 100 µM | SK-MEL-28 > 100 µM | M14 > 100 µM | Hs-578T > 100 µM | NCI-H460 > 100 µM | MDA-N > 100 µM | A549 97.7 µM | UACC-257 > 100 µM | LOX IMVI 58.1 µM | K562 > 100 µM | SK-OV-3 > 100 µM | SK-MEL-2 > 100 µM | SR 59.4 µM | CCRF-CEM > 100 µM | DU-145 > 100 µM | U-251 > 100 µM | HCC 2998 55.8 µM | OVCAR-3 > 100 µM | HOP-92 28.6 µM | HT-29 > 100 µM | TK-10 > 100 µM | MDA-MB-231 > 100 µM | MOLT-4 67.5 µM | IGROV-1 39.1 µM
> 100 µM: HCT-15
